Test results published in paper PMC6934184, “Selective DNA-PKcs inhibition extends the therapeutic index of localized radiotherapy and chemotherapy” (The Journal of Clinical Investigation, 2019).

Biological target: T1, PRKCI (PKC iota) (Homo sapiens, UniProt P41743)
T1 construct: purchased Thermo Fisher Scientific (Life Technologies) SelectScreen
Experiment: SelectScreen Z'LYTE
Format: biochemical
Procedure, shortened: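 Percent values come from Thermo SelectScreen profiling of NU5455, combining activity and binding assays. CSF1R was run in Z'LYTE format at Km app ATP, and CAMK1 in Adapta format with ATP listed at 10.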

T1 sequence (P41743 whole entry): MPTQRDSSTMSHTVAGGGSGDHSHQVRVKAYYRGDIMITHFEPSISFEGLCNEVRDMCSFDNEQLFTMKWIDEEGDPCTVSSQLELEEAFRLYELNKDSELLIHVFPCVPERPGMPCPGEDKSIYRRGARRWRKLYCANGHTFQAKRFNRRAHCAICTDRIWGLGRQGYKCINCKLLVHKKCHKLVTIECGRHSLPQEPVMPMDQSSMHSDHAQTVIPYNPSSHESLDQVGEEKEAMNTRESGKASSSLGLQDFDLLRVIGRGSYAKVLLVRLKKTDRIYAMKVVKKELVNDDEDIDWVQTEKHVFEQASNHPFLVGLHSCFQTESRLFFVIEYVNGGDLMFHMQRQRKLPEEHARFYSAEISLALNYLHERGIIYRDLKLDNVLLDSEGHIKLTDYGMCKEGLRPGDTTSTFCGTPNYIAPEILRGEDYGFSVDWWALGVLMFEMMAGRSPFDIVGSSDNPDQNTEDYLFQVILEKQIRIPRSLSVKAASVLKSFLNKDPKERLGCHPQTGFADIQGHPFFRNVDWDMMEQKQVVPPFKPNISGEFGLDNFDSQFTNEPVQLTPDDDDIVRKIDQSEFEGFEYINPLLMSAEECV

With `CN(C(=O)CN1CCOCC1)c1ccc2sc3c(-c4cccc5c(=O)cc(N6CC7CCC(C6)O7)oc45)cccc3c2c1` [NU5455] the inhibition at 1 µM was -0.8%.
